A short description of series [1]: pH-dependent equilibrium of lactone ring and open chain carboxylic acid form in solution. In kind it is physicochemical. The text has this:
In solution, SDC-TRAP-0063 contains a lactone ring at pH-dependent equilibrium with the corresponding open chain carboxylic acid form.

Series [2] in a line: Light sensitivity of the diluted solution. The series is classed as physicochemical. As to conditions: duration of 6 hours. The text has this: The diluted solution is attached to an infusion set free of diethylhexyl-phthalate (DEHP) and containing a 0.2 micron filter.
A short description of series [3]: Repeat dose GLP toxicity study in rats. In kind it is in vivo, rat. Conditions: for AUC(0-t): in vivo, 30 mg/kg, at the STD10 in the GLP toxicology study. On the procedure: (§1) The SDC-TRAP-0063 selected starting dose is 30 mg IV on D1, D8, and D15 of each 28-day cycle. ICH S9 recommends that a starting clinical dose for a first-in-human study should be either 1/10th of the STD10 in rodent toxicity studies or ⅙th of the HNSTD in non-rodent toxicity studies.
(§2) Based on the findings in the repeat dose GLP toxicity study in rats, the dose of one-tenth the rat STD10 gives a Human Equivalent Dose (HED) of 0.48 mg/kg informing the SDC-TRAP-0063 first-in-human starting dose (Table 10). The calculation based on the dog highest non-severe toxic dose (HNSTD) of 20 mg/kg determined in the repeat dose GLP toxicity study in dogs is shown in Table 11 and results in a higher HED of 1.9 mg/kg substantiating that rat is the more sensitive species. The human starting dose of 0.48 mg/kg is equivalent to 18 mg/m^2. Assuming an average human weight of 60 kg, the starting dose translates to 29 mg or using an average body surface area of 1.7 m^2, the starting dose is 30 mg.

Series [4] deals with mice xenografts. Put plainly: Anti-tumor efficacy in mice xenografts. As to conditions: once weekly administration. In kind it is in vivo, mouse. On the procedure: (§3) Exposures achieved in these toxicology studies exceed the levels anticipated to show anti-tumor activity, based on anti-tumor efficacy determined in mice. The minimum dose for anti-tumor efficacy in mice xenografts was determined to be 20 mg/kg with once weekly administration. […] This exposure is similar to that in rats at the STD10 in the GLP toxicology study where the AUCt values determined were 107 and 68 μg·h/mL in males and female rats, respectively. The mouse exposure is lower that the exposure at the HNSTD in dogs, 181 and 183 μg·h/mL in male and female dogs, respectively. Using body surface area, the dog HNSTD for SDC-TRAP-0063 is 6.6-fold higher than the minimum dose for efficacy in the mouse while the rat STD10 is 3 fold higher.

The nature of series [5]: Repeat dose GLP toxicity study in dogs. The series is classed as in vivo, dog. As to conditions: for AUC(0-t): in vivo, 20 mg/kg, at the HNSTD, read-out: exposure (AUCt). On the procedure:
as §1, §2

A short description of series [6]: Exposure in mice. As to conditions: mouse, in vivo, 20 mg/kg dose. The procedure:
as §3

Series [7] deals with tumor cells. Put plainly: DNA double-strand breaks in tumor cells. In kind it is cell-based. Conditions: treatment of tumor cells. The procedure:
The histone H2A variant H2AX (γ-H2AX) is an indicator of DNA double-strand breaks and is a sensitive marker of DNA damage response. During the DNA damage response, double-stranded breaks (DSB) are generated that result in the rapid phosphorylation of γ-H2AX. […] These DSBs can be quantitated by measuring γ-H2AX levels. In in vivo pharmacology studies, PDc response to SDC-TRAP-0063 was assessed by immunostaining for γ-H2AX and was associated with anti-tumor activity of SDC-TRAP-0063. γ-H2AX has been used in clinical studies to monitor DNA damage induced by topoisomerase I inhibition, ionizing radiation, or Weel inhibition. During Phase 1 only, for patients who sign the provision of optional tumor biopsies and hair follicle collections, levels of γ-H2AX are evaluated in paired tumor biopsies and hair follicles to check for evidence of SDC-TRAP-0063-induced DNA damage response. Based on the mechanism of action of SDC-TRAP-0063, it would be expected that evidence of DNA damage, as measured by γ-H2AX and/or other markers of DNA damage, would be greater in tumor tissue compared to hair follicle. It is estimated that 10 high quality pairs of tumor biopsies and hair follicles are needed to adequately explore the relationship between SDC-TRAP-0063 treatment and DNA damage response.

[8] abbreviates: mg/kg human dose multiplied by 37.

In turn, `CCc1c2c(nc3ccc(OC(=O)N4CCC(CCn5ccc6cc(-n7c(O)nnc7-c7cc(C(C)C)c(O)cc7O)ccc65)CC4)cc13)-c1cc3c(c(=O)n1C2)COC(=O)[C@]3(O)CC` [SDC-TRAP-0063] showed a pKa in series [1] of 9.3. In addition, the “light sensitivity of the diluted solution” value in series [2] was “not light sensitive”. Moreover, the entries for the “HED of 1/10 Rat STD10” value in series [3] (1/10 rat STD10 divided by 6.2 (60 kg human)) and in series [3] (setting [8]) were 0.48 mg/kg and 18 mg/m^2, respectively. In addition, the “Rat 1/10 STD10” value in series [3] (mg/kg dose in rat multiplied by 6) was found to be 18 mg/m^2. Further, the “1/10 Rat STD10” value in series [3] (rat) is 3.0 mg/kg. In addition, the AUC(0-t) turned out to be 68000 ng·h/mL in series [3] (rat, female rats); 107000 ng·h/mL in series [3] (rat, male rats); 183 µg·h/mL in series [5] (dog, female dogs); 181 µg·h/mL in series [5] (dog, male dogs); 112 µg·h/mL in series [6]. The “Rat STD10” value in series [3] (repeat dose GLP toxicity study in rats) was 30 mg/kg. For the same compound, in series [3] (using body surface area), the “rat STD10 relative to the minimum dose for efficacy in the mouse” value is recorded as 3 fold. The “minimum dose for anti-tumor efficacy” value in series [4] is 20 mg/kg. Besides, the “HED of 1/6 Dog HNSTD” value in series [5] (1/6 dog HNSTD divided by 1.8 (60 kg human)) stood at 1.9 mg/kg; in series [5] (setting [8]), 69 mg/m^2. In series [5] (dog), the “1/6 Dog HNSTD” value was found to be 3.3 mg/kg. Moreover, the “Dog 1/6 HNSTD” value in series [5] (mg/kg dose in dog multiplied by 20) is recorded as 67 mg/m^2. Besides, the “Dog HNSTD” value in series [5] (repeat dose GLP toxicity study in dogs) is 20 mg/kg. In addition, the “dog HNSTD relative to the minimum dose for efficacy in the mouse” value in series [5] (using body surface area) was determined as 6.6 fold. Besides, the “DNA double-stranded breaks (DSBs)” value in series [7] was “induces DNA DSBs”.

By pKa is commonly meant the pH at which an ionisable group is half protonated.

The record behind these values is patent US20200230126A1, “TARGETED THERAPEUTICS” (TARVEDA THERAPEUTICS, INC., priority 2017, published 2020).
